Source: DBAASP
In brackets after ≈: the same amount, converted by molar mass. Blank lines part the entries; values can stand above or below the molecule they belong to.

Key:
Experiment in all cases: ≥ marks a high value that may be exact or a test limit, other limits are often not marked, values filed in µg/mL are converted to µM
[1] = test system: Aeromonas hydrophila ATCC 35654
[2] = test system: Micrococcus luteus ATCC 49732
[3] = test system: Staphylococcus aureus ATCC 25923
[4] = test system: Escherichia coli ATCC 25922
[5] = test system: Staphylococcus epidermidis NBRC 12298
[6] = test system: Escherichia coli DH5alpha
[7] = test system: Staphylococcus aureus NBRC 13276
[8] = test system: Pseudomonas aeruginosa NBRC 13275
[9] = test system: Pseudomonas aeruginosa PA214
[10] = test system: Pseudomonas aeruginosa PA330
Escherichia coli K-12 = test system: Escherichia coli K-12
[11] = test system: Pseudomonas aeruginosa PAO1
[12] = test system: Klebsiella pneumoniae DSM 789
[13] = test system: Acinetobacter baumannii ATCC 19606
[14] = test system: Pseudomonas aeruginosa DSM 1117
[15] = test system: Staphylococcus aureus DSM 11729
[16] = test system: Acinetobacter baumannii Al1852-ΔLpxD
[17] = test system: Citrobacter freundii DSM 30029
[18] = test system: Acinetobacter baumannii AL1851-ΔLpxA
[19] = test system: Escherichia coli DSM 1103
[20] = test system: Staphylococcus epidermidis DSM 28319
[21] = test system: Salmonella enterica DSM 17058
Shigella sonnei DSM 5570 = test system: Shigella sonnei DSM 5570
[22] = test system: Bacillus megaterium ATCC 10778
[23] = test system: Candida tropicalis IOC 4560
Candida albicans MDM8 = test system: Candida albicans MDM8
Escherichia coli SBS 363 = test system: Escherichia coli SBS 363
[24] = test system: Staphylococcus aureus ATCC 29213
Micrococcus luteus A270 = test system: Micrococcus luteus A270
[25] = test system: Bacillus subtilis ATCC 6633
[26] = test system: Enterobacter cloacae beta-12
[27] = test system: Pseudomonas aeruginosa NCIB 10421
[28] = test system: Serratia marcescens ATCC 4112
[29] = test system: Candida parapsilosis ATCC 22019
Staphylococcus aureus = test system: Staphylococcus aureus
[30] = test system: Candida albicans ATCC 24433
Escherichia coli = test system: Escherichia coli
[31] = test system: Trichophyton rubrum ATCC 28189
Escherichia coli E416-17 = test system: Escherichia coli E416-17
Escherichia coli E423-17 = test system: Escherichia coli E423-17
[32] = test system: Staphylococcus aureus USA 300
[33] = test system: Staphylococcus aureus M838-17

Structure (SMILES): CC[C@H](C)[C@H](NC(=O)[C@H](CC(C)C)NC(=O)[C@H](CCC(N)=O)NC(=O)[C@@H](NC(=O)[C@H](CCCN=C(N)N)NC(=O)[C@@H](NC(=O)[C@H](CS)NC(=O)[C@H](CCCCN)NC(=O)[C@@H](N)CCCN=C(N)N)C(C)C)C(C)C)C(=O)N[C@@H](CCCCN)C(=O)N[C@@H](CC(N)=O)C(=O)NCC(=O)N[C@@H](CCCCN)C(=O)N[C@@H](CCCCN)C(=O)N[C@H](C(=O)N[C@H](C(=O)N[C@@H](C)C(=O)N[C@@H](Cc1ccccc1)C(N)=O)[C@@H](C)O)[C@@H](C)CC [RKCVRVQLIKNGKKITAF]
MIC [1]: 8.4 µM (≈ 17.7 µg/mL) | MIC [2]: 7.2 µM (≈ 15.1 µg/mL) | MIC [3]: 7.2 µM (≈ 15.1 µg/mL) | MIC [4]: 8.4 µM (≈ 17.7 µg/mL)

Structure (SMILES): CC(C)C[C@H](NC(=O)[C@H](C)NC(=O)[C@H](CCCCN)NC(=O)[C@H](Cc1ccccc1)NC(=O)[C@H](CC(C)C)NC(=O)[C@H](CCCCN)NC(=O)[C@H](C)NC(=O)[C@H](Cc1c[nH]c2ccccc12)NC(=O)[C@H](C)NC(=O)[C@H](CCCCN)NC(=O)[C@H](CC(C)C)NC(=O)[C@H](Cc1ccccc1)NC(=O)[C@H](CCCCN)NC(=O)[C@H](CCCCN)NC(=O)[C@H](CC(C)C)NC(=O)[C@H](C)NC(=O)[C@@H](N)CCCCN)C(N)=O [KALKKFLKAWAKLFKAL]
MIC [9]: 3.1 µM (≈ 6.21 µg/mL) | MIC [10]: 6.3 µM (≈ 12.6 µg/mL) | MIC (Escherichia coli K-12): 1.6 µM (≈ 3.21 µg/mL) | MIC [11]: 3.1 µM (≈ 6.21 µg/mL)

Structure (SMILES): CC[C@H](C)[C@H](NC(=O)CNC(=O)[C@H](CCC(=O)O)NC(=O)[C@H](Cc1c[nH]c2ccccc12)NC(=O)[C@@H](NC(=O)[C@H](CCCCN)NC(=O)CNC(=O)[C@H](CC(C)C)NC(=O)[C@@H](N)Cc1c[nH]c2ccccc12)[C@@H](C)CC)C(=O)N[C@@H](CCCCN)C(=O)N[C@@H](CO)C(=O)N[C@@H](CC(C)C)C(=O)N[C@@H](Cc1ccccc1)C(N)=O [WLGKIWEGIKSLF]
MIC [22]: 0.78 µM (≈ 1.23 µg/mL) | MIC [23]: 1.56 µM (≈ 2.46 µg/mL) | MIC (Candida albicans MDM8): 3.13 µM (≈ 4.93 µg/mL) | MIC (Escherichia coli SBS 363): 1.56 µM (≈ 2.46 µg/mL) | MIC [24]: 1.6 µM (≈ 2.52 µg/mL) | MIC (Micrococcus luteus A270): 0.78 µM (≈ 1.23 µg/mL) | MIC [25]: 0.78 µM (≈ 1.23 µg/mL) | MIC [26]: 12.5 µM (≈ 19.7 µg/mL) | MIC [27]: 12.5 µM (≈ 19.7 µg/mL) | MIC [28]: 0.78 µM (≈ 1.23 µg/mL)

Now from value to molecule:

MIC [5]: 3.12 µM (≈ 6.15 µg/mL) | MIC [6]: 3.12 µM (≈ 6.15 µg/mL) | MIC [7]: 6.25 µM (≈ 12.3 µg/mL) | MIC [8]: 1.56 µM (≈ 3.07 µg/mL)
Structure (SMILES): CC[C@H](C)[C@H](NC(=O)CN)C(=O)N[C@@H](CCCCN)C(=O)N[C@@H](CCCCN)C(=O)N[C@@H](Cc1ccccc1)C(=O)N[C@@H](CC(C)C)C(=O)N[C@@H](CCCCN)C(=O)N[C@@H](CO)C(=O)N[C@@H](C)C(=O)N[C@@H](CCCCN)C(=O)N[C@@H](CCCCN)C(=O)N[C@@H](Cc1ccccc1)C(=O)N[C@H](C(=O)N[C@@H](CCCCN)C(=O)N[C@@H](C)C(=O)N[C@@H](Cc1ccccc1)C(=O)N[C@@H](CCCCN)C(N)=O)C(C)C [GIKKFLKSAKKFVKAFK]

MIC [12]: ≥ 32 µM | MIC [13]: 32 µM (≈ 49.5 µg/mL) | MIC [14]: 1 µM (≈ 1.55 µg/mL) | MIC [15]: 16 µM (≈ 24.7 µg/mL) | MIC [16]: ≥ 32 µM | MIC [17]: 4 µM (≈ 6.19 µg/mL) | MIC [18]: 16 µM (≈ 24.7 µg/mL) | MIC [19]: 8 µM (≈ 12.4 µg/mL) | MIC [20]: 0.5 µM (≈ 0.773 µg/mL) | MIC [21]: 16 µM (≈ 24.7 µg/mL) | MIC (Shigella sonnei DSM 5570): 2 µM (≈ 3.09 µg/mL)
Structure (SMILES): CC[C@H](C)[C@H](NC(=O)[C@H](CC(=O)O)NC(=O)[C@H](Cc1c[nH]c2ccccc12)NC(=O)[C@H](CCCCN)NC(=O)[C@@H]1CCCN1C(=O)[C@H](CC(C)C)NC(=O)[C@H](CCSC)NC(=O)[C@H](Cc1ccc(O)cc1)NC(=O)[C@H](CC(C)C)NC(=O)[C@H](CC(N)=O)NC(=O)[C@@H](NC(=O)CN)[C@@H](C)O)C(=O)N1CCC[C@H]1C(N)=O [GTNLYMLPKWDIP]

MIC [29]: ≥ 298 µM | MIC (Staphylococcus aureus): > 298 µM | MIC [30]: ≥ 298 µM | MIC (Escherichia coli): > 298 µM | MIC [31]: ≥ 298 µM
Structure (SMILES): CC[C@H](C)[C@H](NC(=O)[C@H](CCCCN)NC(=O)[C@H](CCC(=O)O)NC(=O)[C@H](CO)NC(=O)[C@H](CCCN=C(N)N)NC(=O)[C@@H](N)CO)C(=O)N[C@H](C(=O)N[C@@H](Cc1cnc[nH]1)C(=O)N[C@@H](CCC(N)=O)C(=O)N[C@@H](CC(C)C)C(=O)N[C@@H](Cc1ccccc1)C(N)=O)C(C)C [SRSEKIVHQLF]

MIC (Escherichia coli E416-17): 16 µM (≈ 21.5 µg/mL) | MIC (Escherichia coli E423-17): ≥ 32 µM | MIC (Escherichia coli K-12): 16 µM (≈ 21.5 µg/mL) | MIC [32]: 4 µM (≈ 5.38 µg/mL) | MIC [33]: 4 µM (≈ 5.38 µg/mL) | MIC [4]: 16 µM (≈ 21.5 µg/mL)
Structure (SMILES): CC(C)C[C@H](NC(=O)[C@H](Cc1c[nH]c2ccccc12)NC(=O)[C@H](Cc1c[nH]c2ccccc12)NC(=O)[C@@H](N)Cc1c[nH]c2ccccc12)C(=O)N[C@@H](CCCN=C(N)N)C(=O)N[C@@H](CCCN=C(N)N)C(=O)N[C@@H](CCCN=C(N)N)C(=O)N[C@@H](Cc1c[nH]c2ccccc12)C(=O)O [WWWLRRRW]
